Experimental data taken from US5389655A, “Phenylfuroxans” (Cassella AG, priority 1992, dated 1995).
Where a name gives a salt, the structure may show the parent alone.

Test system: pulmonary artery of the guinea-pig
Experiment: relaxation of guinea-pig potassium-depolarised pulmonary artery strips (inhibition of CaCl2-induced contraction)
Details: Cavia porcellus, read-out: IC50 (concentration of the test substance which inhibits the contraction by 50%)
Text: As a guanylate cyclase activator, nitrogen monoxide leads to an increase in cyclic guanosine monophosphate, which causes a relaxation in the smooth muscle and antiadhesive and antiaggregatory actions in the blood platelets. Nitrogen monoxide is additionally crucially involved in learning processes, in the regulation of the kidney function, in immune defence, in septic shock and in erectile dysfunctions. […] In this method, spiral strips of the pulmonary artery of the guinea-pig are depolarised using 40 mmol/l potassium after equilibration in calcium-free Tyrode solution. An addition of 0.5 mmol/l of CaCl2 then induces a contraction.

Structure (SMILES) | IC50
O=[N+]([O-])O[C@@H]1CO[C@H]2[C@@H]1OC[C@@H]2O [Isosorbide-5-mononitrate, reference compound] | > 100000 nM

Same assay, conditions: Cavia porcellus; spiral strips depolarised with 40 mmol/l potassium; contraction by 0.5 mmol/l CaCl2; cumulative addition; average of 4 to 6 vessel strips; read-out: IC50 (concentration of the test substance which inhibits the contraction by 50%)

Structure (SMILES) | IC50
COC(=O)C[S+]([O-])c1no[n+]([O-])c1-c1ccccc1 (stereo not shown) [Compound 2, 3-Phenyl-4-(methoxycarbonylmethylsulphinyl)-1,2,5-oxadiazole-2-oxide] | 3000 nM
CCN(CC)CCS(=O)(=O)c1no[n+]([O-])c1-c1ccccc1 [Compound 5, 3-Phenyl-4-(2-diethylaminoethylsulphonyl)-1,2,5-oxadiazole-2-oxide] | 700 nM
CN(CCOc1no[n+]([O-])c1-c1ccccc1)Cc1ccccc1 [Compound 6, 3-Phenyl-4-(2-(N-benzyl-N-methylamino)ethoxy)-1,2,5-oxadiazole-2-oxide hydrochloride] | 4000 nM
CCCCS(=O)(=O)c1no[n+]([O-])c1-c1ccccc1 [Compound 9, 3-Phenyl-4-butylsulphonyl-1,2,5-oxadiazole-2-oxide] | 30 nM

More lines, now with the values ahead:

IC50 | Structure (SMILES)
300 nM | O=S(=O)(CCO)c1no[n+]([O-])c1-c1ccccc1 [Compound 10, 3-Phenyl-4-(2-hydroxyethylsulphonyl)-1,2,5-oxadiazole-2-oxide]
3000 nM | [O-][n+]1onc(OCc2cccnc2)c1-c1ccccc1 [Compound 12, 3-Phenyl-4-(pyrid-3-ylmethoxy)-1,2,5-oxadiazole-2-oxide]
2000 nM | NC(=O)C[S+]([O-])c1no[n+]([O-])c1-c1ccccc1 (stereo not shown) [Compound 19, 3-Phenyl-4-(aminocarbonylmethylsulphinyl)-1,2,5-oxadiazole-2-oxide]
50 nM | CCS(=O)(=O)c1no[n+]([O-])c1-c1ccccc1 [Compound 20, 3-Phenyl-4-ethylsulphonyl-1,2,5-oxadiazole-2-oxide]
300000 nM | CCOC(=O)[N-]c1cn(N2CCOCC2)n[o+]1 [Molsidomine, reference compound]
